# Measured values as given in publication PMC6539495, “Anti-Cancer Activity of Novel Dihydrotestosterone-Derived Ring A-Condensed Pyrazoles on Androgen Non-Responsive Prostate Cancer Cell Lines” (International Journal of Molecular Sciences, 2019).
# What was measured:
# DU 145 cells = assay: MTT cell viability assay on DU 145 prostate cancer cells; format: cell-based, human; details: 72 hours; for IC50: ± SD
# Procedure: (§1) HeLa, MCF-7 and MDA-MB-231 cells were obtained from Sigma-Aldrich and maintained as reported previously. MRC-5, PC-3, DU 145 cells were purchased from American Type Culture Collection (ATCC, Manassas, VA, USA). PC-3 and DU 145 were maintained in RPMI medium (Sigma-Aldrich) whereas MRC-5 cells were maintained in DMEM medium (Sigma-Aldrich). All media were complemented with 10% Fetal bovine serum (FBS, Sigma-Aldrich) 2 mM L-glutamine, 0.01% streptomycin and 0.005% ampicillin (Sigma-Aldrich). Cells were cultured under standard conditions in a 37 °C incubator containing 5% CO2 in 95% humidity.
# (§2) Each test compound was dissolved in cell culture grade DMSO (Molar Chemicals, Halásztelek, Hungary) in a final concentration of […]. Antiproliferative action of the synthesized steroids was investigated by MTT assay. An amount of 5000 cells/well were seeded into 96 well plates. Twenty-four hours post seeding, all cell lines were treated with each compound in 10 and 30 μM concentrations for 72 hours. […] After 72 hours, cells were washed with PBS and incubated with culture medium containing 0.5 mg/mL MTT (3-(4, 5-dimethylthiazolyl-2)-2,5-diphenyltetrazolium bromide) reagent (SERVA, GmbH, Heidelberg, Germany) for an hour at 37 °C. Formazan crystals were solubilized in DMSO and extinction was measured at 570 nm using a Synergy HTX plate reader (BioTech-Hungary, Budapest, Hungary). MTT assays were performed at least three times using four independent biological replicates. Data were normalized to solvent controls and the graphical representation of the obtained data as well as the calculation of IC50 values were carried out by GraphPad Prism 7 software (GraphPad Software; San Diego, CA, USA).
# Bax mRNA in PC-3 cells = assay: RT-qPCR of Bax mRNA; format: cell-based, human; details: PC-3, 48 h; 4e, 4j 5 µM; cisplatin 200 µM; GAPDH reference
# Procedure: (§3) PC-3 cells were seeded at 2 × 10^6 cells/well density in 6 well plates. On the following day cells were treated with 5 µM of either compound 4e or 4j or with 200 µM of cisplatin. Cells were collected 48-hours post-treatment and total cellular RNA was isolated using RNeasy® Mini Kit (QIAGEN, Hilden, Germany) according to the manufacturer’s recommendation. RNA (2 µg) was reverse transcribed (TaqMan® Reverse Transcription kit, Applied Biosystems, Foster City, CA, USA) in 50 µL total volume. PCR reactions were performed on PicoReal™ Real-time PCR (Thermo Scientific, Walthan, MA, USA) using SYBRGreen qPCR Master Mix (Thermo Scientific) with an input of 1 µL cDNA. Each primer (Table 3) was used at 200 nM concentration. Relative transcript levels were determined by the ΔΔCt analysis using GAPDH as reference gene. Experiments were repeated three times with three biological replicates.
# MDA-MB-231 cells = assay: MTT cell viability assay on MDA-MB-231 breast cancer cells; format: cell-based, human; details: 72 hours; for IC50: ± SD
# Procedure: as §1, §2
# PC-3 cells [1] = assay: Annexin V/PI apoptosis detection assay (flow cytometry); format: cell-based, human; details: PC-3, 5 µM, 48-hour treatment
# Procedure: PC-3 cells were seeded at 2 × 10^6 cells/well density in 6-well plates. On the following day cells were treated with 5 µM of either compound 4e or 4j or with 200 µM of cisplatin (Accord Healthcare Ltd., Middlesex, UK). After 48-hour treatment, cells were collected and a Dead Cell Apoptosis Kit containing AnnexinV-FITC and propidium iodide (Life Technologies-Hungary, Budapest, Hungary) was used according to the manufacturer’s recommendation. Fluorescence intensities of at least 10,000 cells/sample were measured by FACSCalibur™ (BD Biosciences, Franklin Lakes, CA, USA) and data were analyzed by FlowJo V10 software (BD Biosciences, Franklin Lakes, NJ, USA). Experiments were repeated three times using triplicates.
# MRC-5 cells = assay: MTT cell viability assay on non-cancerous MRC-5 fibroblasts; format: cell-based; details: for Mean values (%) of primary growth inhibitory screen (viability in %), MRC-5 / IC50: 72 hours, MTT; for IC50: ± SD
# Procedure: as §1, §2
# HeLa cells = assay: MTT cell viability assay on HeLa cervical cancer cells; format: cell-based, human; details: 72 hours; for IC50: ± SD
# Procedure: as §1, §2
# MCF-7 cells = assay: MTT cell viability assay on MCF-7 breast cancer cells; format: cell-based, human; details: 72 hours; for IC50: ± SD
# Procedure: as §1, §2
# PC-3 cells [2] = assay: MTT cell viability assay on PC-3 prostate cancer cells; format: cell-based, human; details: for Mean values (%) of primary growth inhibitory screen (viability in %), PC-3 / IC50: 72 hours, MTT; for IC50: ± SD; for antiproliferative potency against PC-3 prostate cancer cells compared to MRC-5 non-cancerous fibroblasts: primary screen
# Procedure: as §1, §2
# [3] = test system: caspase 3 mRNA in PC-3 cells; assay: RT-qPCR of caspase 3 mRNA; format: cell-based, human; details: PC-3, 48 h; 4e, 4j 5 µM; cisplatin 200 µM; GAPDH reference
# Procedure: as §3
# [4] = Solubility in DMSO for pharmacological studies; format: physicochemical; details: final concentration of 5 mM
# Procedure: To perform pharmacological studies, the synthesized DHT derivatives were dissolved in DMSO (dimethyl sulfoxide) in a final concentration of 5 mM. One compound (5h) was non-soluble in the applied solvent, thus was excluded from the pharmacological evaluations. […] For this, PC-3 and DU 145 prostate cancer cells, MCF-7 and MDA-MB-231 breast cancer cells, HeLa cervical cancer cells and non-cancerous MRC-5 fibroblasts were used. […] On the heat map representing viability results following treatments with DHT derivatives at 30 µM concentration a remarkable structure–function relationship can be recognized (Figure 3).
SMILES,"Mean values (%) of primary growth inhibitory screen (viability in %), DU 145 (DU 145 cells; 10 µM) [%]","Mean values (%) of primary growth inhibitory screen (viability in %), DU 145 (DU 145 cells; 30 µM) [%]",IC50 (DU 145 cells) [µM],Bax mRNA expression level compared to untreated control (Bax mRNA in PC-3 cells),"Mean values (%) of primary growth inhibitory screen (viability in %), MDA-MB-231 (MDA-MB-231 cells; 10 µM) [%]","Mean values (%) of primary growth inhibitory screen (viability in %), MDA-MB-231 (MDA-MB-231 cells; 30 µM) [%]",IC50 (MDA-MB-231 cells) [µM],percentage of annexin V-positive cells (Q2 + Q3) (PC-3 cells [1]) [%],"Mean values (%) of primary growth inhibitory screen (viability in %), MRC-5 (MRC-5 cells; 10 µM) [%]","Mean values (%) of primary growth inhibitory screen (viability in %), MRC-5 (MRC-5 cells; 30 µM) [%]",IC50 (MRC-5 cells) [µM],"Mean values (%) of primary growth inhibitory screen (viability in %), HeLa (HeLa cells; 10 µM) [%]","Mean values (%) of primary growth inhibitory screen (viability in %), HeLa (HeLa cells; 30 µM) [%]",IC50 (HeLa cells) [µM],"Mean values (%) of primary growth inhibitory screen (viability in %), MCF-7 (MCF-7 cells; 10 µM) [%]","Mean values (%) of primary growth inhibitory screen (viability in %), MCF-7 (MCF-7 cells; 30 µM) [%]",IC50 (MCF-7 cells) [µM],"Mean values (%) of primary growth inhibitory screen (viability in %), PC-3 (PC-3 cells [2]; 10 µM) [%]","Mean values (%) of primary growth inhibitory screen (viability in %), PC-3 (PC-3 cells [2]; 30 µM) [%]",IC50 (PC-3 cells [2]) [µM],further results
"COc1ccc(-n2nc3c(c2C)C[C@@]2(C)[C@@H](CC[C@@H]4[C@@H]2CC[C@]2(C)[C@@H](O)CC[C@@H]42)C3)cc1 [4e, 17β-Hydroxy-1′-(4″-methoxyphenyl)-5′-methylpyrazolo[3′,4′:3,2]-5α-androstane]",23.3,5.5,3.6 ± 1.2,significantly increased,35.2,13.6,6.6 ± 0.9,33.96,71.2,28.8,8.6 ± 1.3,31.7,15.1,8.5 ± 0.6,20.9,14.0,5.5 ± 0.6,28.4,10.8,4.2 ± 1.1,"specificity in cancer cell toxicity (cancer cell lines vs MRC-5) (MRC-5 cells; primary screen, manifested already at 10 µM): utmost specificity; caspase 3 mRNA expression level compared to untreated control [3]: significantly increased"
"Cc1c2c(nn1-c1ccc([N+](=O)[O-])cc1)CC1CCC3C4CCC(O)C4(C)CCC3C1(C)C2 (stereo not drawn) [4j, 17β-Hydroxy-1′-(4″-nitrophenyl)-5′-methylpyrazolo[3′,4′:3,2]-5α-androstane]",82.8,60.4,19.7 ± 1,significantly increased,83.8,80.6,> 30,37.89,99.1,99.8,> 30,60.5,64.6,> 30,55.8,49.6,18.2 ± 3.9,38.2,41.6,5.6 ± 1.1,antiproliferative potency against PC-3 prostate cancer cells compared to MRC-5 non-cancerous fibroblasts (PC-3 cells [2]; 10 µM): significantly higher; antiproliferative potency against PC-3 prostate cancer cells compared to MRC-5 non-cancerous fibroblasts (PC-3 cells [2]; 30 µM): significantly higher; caspase 3 mRNA expression level compared to untreated control [3]: significantly increased
"Cc1c2c(nn1-c1ccc(Br)cc1)CC1CCC3C4CCC(=O)C4(C)CCC3C1(C)C2 (stereo not drawn) [5h, 1′-(4″-Bromophenyl)-5′-methylpyrazolo[3′,4′:3,2]-5α-androst-17-one]",,,,,,,,,,,,,,,,,,,,,solubility in the applied solvent (DMSO) [4]: non-soluble
